13 compounds from patent US9540333B2, “Alkyl amide-substituted pyrimidine compounds useful in the modulation of IL-12, IL-23 and/or IFNα” (Bristol-Myers Squibb Company, priority 2012, dated 2017) can be followed below.

The target of assay [1] is T1, His-tagged protein corresponding to amino acids 575-869 of human Tyk2 (Homo sapiens, UniProt P29597).
T1 construct: His-tagged protein corresponding to amino acids 575-869 of human Tyk2; made in house
Description: Probe displacement assay (scintillation proximity, radiolabeled probe). It is filed as binding. The note with it: 2.5 nM Tyk2 (575-869), 40 nM tritiated probe, 30 minutes at room temperature. How it is done:
The probe displacement assay is conducted as follows: In a […], test compounds along with recombinantly expressed His-tagged protein corresponding to amino acids 575-869 of human Tyk2 (sequence shown below) at 2.5 nM, 40 nM ((R)—N-(1-(3-(8-methyl-5-(methylamino)-8H-imidazo[4,5-d]thiazolo[5,4-b]pyridin-2-yl)phenyl)ethyl)-2-([^3H]methylsulfonyl)benzamide) (preparation described below) and 80 μg/mL Copper His-Tag scintillation proximity assay beads (Perkin Elmer, Catalog #RPNQ0095) in 50 mM HEPES, pH 7.5, containing 100 μg/mL bovine serum albumin and 5% DMSO were incubated for 30 minutes at room temperature. The amount of radiolabeled probe (preparation described below) bound to Tyk2 was then quantified by scintillation counting, and the inhibition by the test compound calculated by comparison to wells either with no inhibitor (0% inhibition) or without Tyk2 (100% inhibition). The IC50 value is defined as the concentration of test compound required to inhibit radiolabeled probe binding by 50%.
Protein Sequence of recombinant Hig-tagged Tyk2 (575-869):
The preparation of radiolabeled probe, (R)—N-(1-(3-(8-methyl-5-(methylamino)-8H-imidazo[4,5-d]thiazolo[5,4-b]pyridin-2-yl)phenyl)ethyl)-2-([^3H]methylsulfonyl)benzamide, was performed as described below.

The test system of assay [2] is IL-23 stimulated Kit225 T cells with STAT-dependent luciferase reporter. Kind of assay: Kit225 T cell assay, IL-23 stimulated STAT-dependent luciferase reporter. It is filed as cell-based. As to conditions: 20 ng/mL human recombinant IL-23, 5-6 hours, read-out: IL-23 Kit225 Reporter, LE (IC50). As for the experimental part: (§1) Kit225 T cells with a stably-integrated STAT-dependent luciferase reporter were plated in RPMI (Gibco) containing 10% heat-inactivated FBS (Gibco) and 100 U/mL PenStrep (Gibco). The cells were then stimulated with either 20 ng/mL human recombinant IL-23 or 200 U/mL human recombinant IFNα (PBL InterferonSource) for 5-6 hours. Luciferase expression was measured using the STEADY-GLO® Luciferase Assay System (Promega) according to the manufacturer's instructions. Inhibition data were calculated by comparison to no inhibitor control wells for 0% inhibition and non-stimulated control wells for 100% inhibition. Dose response curves were generated to determine the concentration required to inhibit 50% of cellular response (IC50) as derived by non-linear regression analysis.
Background: In a reporter assay the amount or activity of a reporter protein is the signal.

The subject of assay [3] is IFNα stimulated Kit225 T cells with STAT-dependent luciferase reporter. Description: Kit225 T cell assay, IFNα stimulated STAT-dependent luciferase reporter. It is filed as cell-based. As to conditions: 200 U/mL human recombinant IFNα, 5-6 hours, read-out: IFNα Kit225 Reporter, LE (IC50). As for the experimental part: as §1

T1 sequence (P29597 575-869): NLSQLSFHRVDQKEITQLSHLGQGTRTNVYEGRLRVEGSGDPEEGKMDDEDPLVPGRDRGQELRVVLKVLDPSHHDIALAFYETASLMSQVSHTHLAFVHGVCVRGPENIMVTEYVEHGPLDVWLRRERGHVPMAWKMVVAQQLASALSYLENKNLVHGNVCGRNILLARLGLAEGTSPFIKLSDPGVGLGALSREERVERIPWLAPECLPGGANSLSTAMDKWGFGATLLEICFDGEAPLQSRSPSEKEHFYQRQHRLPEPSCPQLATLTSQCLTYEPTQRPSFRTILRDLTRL

In assay [1], `CNC(=O)c1cnc(Nc2ccc(F)cc2)nc1Nc1ccccc1` [Example 3] gave a 50% effective concentration (EC50) of 840 nM. For the same compound, the results for the IC50 in assay [2] and in assay [3] were 3510 nM and 12500 nM, respectively.
For `CNC(=O)c1cnc(Nc2ccc(F)c(F)c2)nc1Nc1ccccc1S(C)(=O)=O` [Example 14], the EC50 in assay [1] amounted to 8.47 nM. Further, the results for the IC50 in assay [2] and in assay [3] were 280 nM and 460 nM, respectively.
For `CNC(=O)c1cnc(Nc2ccc(F)cc2)nc1Nc1cccc(C(N)=O)c1` [Example 6] the same measures were 1350 nM, 3540 nM and 12500 nM.
For `CNC(=O)c1cnc(Nc2ccc(F)cc2)nc1Nc1ccccc1C(N)=O` [Example 2], a half-maximal response in assay [1] (EC50) required 60 nM. For the same compound, the IC50 in assay [2] was determined as 2650 nM; in assay [3] it was 2790 nM.
For `CNC(=O)c1cnc(NC2CCC2)nc1Nc1ccccc1C(N)=O` [Example 7] the same measures were 110 nM, 9680 nM and 12500 nM.
For `CNC(=O)c1cnc(Nc2ccc(-c3ccccc3)cc2)nc1Nc1ccccc1C(N)=O` [Example 10] the same measures were 70 nM, 1320 nM and 1450 nM.
Turning to `CNC(=O)c1cnc(NC2CCCC2)nc1Nc1ccccc1C(N)=O` [Example 8], it took 120 nM to reach a half-maximal effect in assay [1] (EC50). The values for the IC50 in assay [2] and in assay [3] were 8280 nM and 12500 nM, respectively.
For `CNC(=O)c1cnc(Nc2ccc(F)cc2)nc1Nc1ccccc1S(C)(=O)=O` [Example 11] the same measures were 70 nM, 60 nM and 590 nM.
With `CNC(=O)c1cnc(NCC2CC2)nc1Nc1ccccc1S(C)(=O)=O` [Example 1], the EC50 in assay [1] was found to be 320 nM. Also, the IC50 in assay [2] turned out to be 3400 nM; in assay [3] it was 1600 nM.
For `CNC(=O)c1cnc(Nc2ccccc2)nc1Nc1ccccc1` [Example 4] the same measures were 530 nM, 8510 nM and 9520 nM.
For `CNC(=O)c1cnc(Nc2ccc(F)c(C)c2)nc1Nc1ccccc1S(C)(=O)=O` [Example 13] the same measures were 20 nM, 200 nM and 310 nM.
For `CNC(=O)c1cnc(Nc2ccccc2)nc1Nc1ccccc1S(C)(=O)=O` [Example 12] the same measures were 30 nM, 200 nM and 160 nM.
As to `CNC(=O)c1cnc(Nc2cccc(-c3ccccc3)c2)nc1Nc1ccccc1C(N)=O` [Example 5], the EC50 in assay [1] was 50 nM. For the same compound, the values for the IC50 in assay [2] and in assay [3] were 4660 nM and 3020 nM, respectively.

By EC50 is commonly meant the concentration that produces a half-maximal response. Broadly, the IC50 is the concentration that gives 50% inhibition.
